Results reported in patent US20260258064A1 (SIRONAX LTD., priority 2023, published 2026).

biological target: T1, SARM1 (50-724) (Homo sapiens, UniProt Q6SZW1); experiment: SARM1 (50-724) enzymatic assay (LC-MS/MS); format: biochemical; conditions: Purified SARM1 (50-724) 2 nM, NMN as activator, NAD+ as substrate, 1 h at room temperature, read-out: IC50 (SARM1 inhibitory activity)
T1 construct: Purified SARM1 (50-724) with a final concentration of 2 nM was pre-incubated with a test compound
T1 sequence (Q6SZW1 50-724): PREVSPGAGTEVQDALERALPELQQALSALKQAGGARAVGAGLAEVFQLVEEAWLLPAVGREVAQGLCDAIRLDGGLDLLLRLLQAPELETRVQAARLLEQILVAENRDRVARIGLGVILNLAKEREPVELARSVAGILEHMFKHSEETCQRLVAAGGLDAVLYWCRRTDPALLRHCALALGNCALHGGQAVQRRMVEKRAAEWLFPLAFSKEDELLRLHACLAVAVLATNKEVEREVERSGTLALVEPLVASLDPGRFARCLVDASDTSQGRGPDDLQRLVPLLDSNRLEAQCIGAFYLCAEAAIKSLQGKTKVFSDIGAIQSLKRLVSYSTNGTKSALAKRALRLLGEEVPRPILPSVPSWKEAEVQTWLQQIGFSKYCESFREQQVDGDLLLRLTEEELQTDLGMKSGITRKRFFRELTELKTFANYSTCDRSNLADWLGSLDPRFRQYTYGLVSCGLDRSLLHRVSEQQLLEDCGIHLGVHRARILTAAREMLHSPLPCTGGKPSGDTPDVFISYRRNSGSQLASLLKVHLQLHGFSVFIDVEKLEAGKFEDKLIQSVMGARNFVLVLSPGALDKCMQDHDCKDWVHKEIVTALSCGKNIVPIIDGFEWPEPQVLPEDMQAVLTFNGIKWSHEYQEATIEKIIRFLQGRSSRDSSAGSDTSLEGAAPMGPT
Protocol: An enzymatic assay was performed in a 384-well plate using Dulbecco's phosphate-buffered saline (PBS) as the reaction buffer. Purified SARM1 (50-724) with a final concentration of 2 nM was pre-incubated with a test compound at […] final assay concentration for 15 min at room temperature. The reaction was initiated by adding a mixture of […] nicotinamide mononucleotide (NMN) as activator and […] NAD^+ as substrate. After 1 h of incubation at room temperature, the reaction was terminated with 10 times volume of 70% acetonitrile, and then centrifuged at 3800 rpm for 10 min. The samples were analyzed using LC-MS/MS after diluted to a proper concentration by 10 mM ammonium acetate (pH 9.75).
In Table 2, activity is provided as follows: A: IC50≤100 nM; B: 100 nM<IC50≤500 nM; C: 500 nM<IC50≤1000 nM; D: IC50>1000 nM.

Row | SMILES | IC50
1 | Fc1cc(C(F)(F)c2ccncc2)cc2nc(-c3nncn3-c3cnccc3C(F)(F)F)[nH]c12 [Compound 464, 6-(difluoro(pyridin-4-yl)methyl)-4-fluoro-2-(4-(4-(trifluoromethyl)pyridin-3-yl)-4H-1,2,4-triazol-3-yl)-1H-benzo[d]imidazole] | ≤ 100 nM
2 | O=c1cc(-n2cnnc2-c2nc3cc(C(F)(F)F)ccc3[nH]2)c(Cl)c[nH]1 [Compound 163, 5-Chloro-4-(3-(5-(trifluoromethyl)-1H-benzo[d]imidazol-2-yl)-4H-1,2,4-triazol-4-yl)pyridin-2(1H)-one] | ≤ 100 nM
3 | Cn1cc(-c2cnccc2C(F)(F)F)c(-c2nc3c(Cl)c(Cl)ccc3[nH]2)cc1=O [Compound 393, 4-(4,5-dichloro-1H-benzo[d]imidazol-2-yl)-1-methyl-4′-(trifluoromethyl)-[3,3′-bipyridin]-6(1H)-one] | 500 to 1000 nM
4 | Fc1cc(C2CC23COC3)cc2nc(-c3nncn3-c3cnccc3C(F)(F)F)[nH]c12 (centres unmarked) [Compound 413, 7-fluoro-5-(5-oxaspiro[2.3]hexan-2-yl)-2-[4-[4-(trifluoromethyl)-3-pyridyl]-1,2,4-triazol-3-yl]-1H-benzimidazole] | ≤ 100 nM
5 | CN(C)c1cc(F)c2[nH]c(-c3nncn3-c3cnccc3C(F)(F)F)nc2c1 [Compound 297, 7-fluoro-N,N-dimethyl-2-(4-(4-(trifluoromethyl)pyridin-3-yl)-4H-1,2,4-triazol-3-yl)-1H-benzo[d]imidazol-5-amine] | ≤ 100 nM
6 | COc1cc(-c2ccccc2Cl)c(-c2nc3cc(C(F)(F)F)ccc3[nH]2)nn1 [Compound 405, 2-(4-(2-chlorophenyl)-6-methoxypyridazin-3-yl)-5-(trifluoromethyl)-1H-benzo[d]imidazole] | 100 to 500 nM
7 | Fc1cc(Oc2nccs2)cc2nc(-c3nncn3-c3cnccc3C(F)(F)F)[nH]c12 [Compound 446, 2-((7-fluoro-2-(4-(4-(trifluoromethyl)pyridin-3-yl)-4H-1,2,4-triazol-3-yl)-1H-benzo[d]imidazol-5-yl)oxy)thiazole] | 100 to 500 nM
8 | CNC(=O)CCc1nnc(-c2nc3cc(C(F)(F)F)ccc3[nH]2)n1-c1cccc(Cl)c1Cl [Compound 156, 3-(4-(2,3-dichlorophenyl)-5-(5-(trifluoromethyl)-1H-benzo[d]imidazol-2-yl)-4H-1,2,4-triazol-3-yl)-N-methylpropanamide] | ≤ 100 nM
9 | FC(F)(F)c1ccc2[nH]c(-c3nncn3-c3cnccc3C(F)(F)F)cc2n1 [Compound 292, 5-(trifluoromethyl)-2-(4-(4-(trifluoromethyl)pyridin-3-yl)-4H-1,2,4-triazol-3-yl)-1H-pyrrolo[3,2-b]pyridine] | ≤ 100 nM
10 | CC(C)(O)CCOc1ccc(OC(F)(F)F)c(-n2cnnc2-c2nc3cc(C(F)(F)F)ccc3[nH]2)n1 [Compound 256, 2-methyl-4-((5-(trifluoromethoxy)-6-(3-(5-(trifluoromethyl)-1H-benzo[d]imidazol-2-yl)-4H-1,2,4-triazol-4-yl)pyridin-2-yl)oxy)butan-2-ol] | ≤ 100 nM
11 | CN1CCC(n2cnnc2-c2nc3cc(C(F)(F)F)ccc3[nH]2)C1 (centres unmarked) [Compound 202, 2-(4-(1-methylpyrrolidin-3-yl)-4H-1,2,4-triazol-3-yl)-5-(trifluoromethyl)-1H-benzo[d]imidazole] | > 1000 nM
12 | FC(F)(F)c1ccc2[nH]c(-c3n[nH]nc3-c3cccc(Cl)c3Cl)nc2c1 [Compound 274, 2-(5-(2,3-dichlorophenyl)-2H-1,2,3-triazol-4-yl)-5-(trifluoromethyl)-1H-benzo[d]imidazole] | 500 to 1000 nM
13 | C=Cc1ccc2[nH]c(-c3nncn3-c3cnccc3C(F)(F)F)nc2c1 [Compound 276, 2-(4-(4-(trifluoromethyl)pyridin-3-yl)-4H-1,2,4-triazol-3-yl)-5-vinyl-1H-benzo[d]imidazole] | ≤ 100 nM
14 | CS(=O)(=O)Cc1nnc(-c2nc3cc(C(F)(F)F)cc(F)c3[nH]2)n1-c1cccc(Cl)c1Cl (single isomer, unassigned) [Compound 187, 2-(4-(2,3-Dichlorophenyl)-5-((methylsulfonyl)methyl)-4H-1,2,4-triazol-3-yl)-7-fluoro-5-(trifluoromethyl)-1H-benzo[d]imidazole] | ≤ 100 nM
15 | FC(F)(F)c1cc2nc(-c3nncn3-c3cccc(Cl)c3Cl)[nH]c2cn1 [Compound 142, 2-(4-(2,3-dichlorophenyl)-4H-1,2,4-triazol-3-yl)-6-(trifluoromethyl)-3H-imidazo[4,5-c]pyridine] | > 1000 nM
16 | FC(F)(F)O[C@@H]1CCOC[C@H]1n1cnnc1-c1nc2cc(C(F)(F)F)ccc2[nH]1 (racemic) [Compound 239, 2-(4-((3R,4R)-4-(trifluoromethoxy)tetrahydro-2H-pyran-3-yl)-4H-1,2,4-triazol-3-yl)-5-(trifluoromethyl)-1H-benzo[d]imidazole] | ≤ 100 nM
17 | FC(F)(F)c1ccc2[nH]c(C3CSCC3c3ccccc3Cl)nc2c1 (centres unmarked) [Compound 340, 2-(4-(2-chlorophenyl)tetrahydrothiophen-3-yl)-5-(trifluoromethyl)-1H-benzo[d]imidazole] | 100 to 500 nM
18 | O=S1(=O)CC(c2nc3cc(C(F)(F)F)ccc3[nH]2)=C(c2ccccc2Cl)C1 [Compound 337, 3-(2-chlorophenyl)-4-(5-(trifluoromethyl)-1H-benzo[d]imidazol-2-yl)-2,5-dihydrothiophene 1,1-dioxide] | > 1000 nM
19 | Clc1cccc(-n2cnnc2-c2nc3cc(-c4cscn4)ccc3[nH]2)c1Cl [Example 100, 4-(2-(4-(2,3-dichlorophenyl)-4H-1,2,4-triazol-3-yl)-1H-benzo[d]imidazol-5-yl)thiazole] | ≤ 100 nM
20 | OCCc1nnc(-c2nc3cc(C(F)(F)F)ccc3[nH]2)n1-c1cccc(Cl)c1Cl [Example 121, 2-(4-(2,3-Dichlorophenyl)-5-(5-(trifluoromethyl)-1H-benzo[d]imidazol-2-yl)-4H-1,2,4-triazol-3-yl)ethan-1-ol] | ≤ 100 nM
21 | CS(=O)(=O)Cc1nnc(-c2nc3cc(C4CC4)cc(F)c3[nH]2)n1-c1cnccc1C(F)(F)F [Compound 283, 5-cyclopropyl-7-fluoro-2-(5-((methylsulfonyl)methyl)-4-(4-(trifluoromethyl)pyridin-3-yl)-4H-1,2,4-triazol-3-yl)-1H-benzo[d]imidazole] | ≤ 100 nM
22 | Cn1ccc(C(F)(F)F)c(-n2cnnc2-c2nc3cc(C(F)(F)F)ccc3[nH]2)c1=O [Compound 279, 1-methyl-4-(trifluoromethyl)-3-(3-(5-(trifluoromethyl)-1H-benzo[d]imidazol-2-yl)-4H-1,2,4-triazol-4-yl)pyridin-2(1H)-one] | > 1000 nM
23 | OCc1cc(-n2cnnc2-c2nc3cc(C(F)(F)F)ccc3[nH]2)c(OC(F)(F)F)cn1 [Compound 253, (5-(trifluoromethoxy)-4-(3-(5-(trifluoromethyl)-1H-benzo[d]imidazol-2-yl)-4H-1,2,4-triazol-4-yl)pyridin-2-yl)methanol] | ≤ 100 nM
24 | FC(F)(F)c1ccncc1-n1cnnc1-c1nc2c(-c3cccnc3)c(Cl)ccc2[nH]1 [Compound 334, 6-chloro-7-(pyridin-3-yl)-2-(4-(4-(trifluoromethyl)pyridin-3-yl)-4H-1,2,4-triazol-3-yl)-1H-benzo[d]imidazole] | > 1000 nM
25 | Fc1cccc(-n2nccc2-c2nc3cc(C(F)(F)F)ccc3[nH]2)c1Cl [Compound 443, 2-(1-(2-chloro-3-fluorophenyl)-1H-pyrazol-5-yl)-5-(trifluoromethyl)-1H-benzo[d]imidazole] | 100 to 500 nM
26 | Clc1cccc(-n2cnnc2-c2nc3cc(C4CCOC4)ccc3[nH]2)c1Cl (centres unmarked) [Example 128, 2-(4-(2,3-dichlorophenyl)-4H-1,2,4-triazol-3-yl)-5-(tetrahydrofuran-3-yl)-1H-benzo[d]imidazole] | ≤ 100 nM
27 | Cc1ccc2[nH]c(-c3nncn3-c3cccc(Cl)c3Cl)nc2c1 [Example 5, 2-(4-(2,3-dichlorophenyl)-4H-1,2,4-triazol-3-yl)-5-methyl-1H-benzo[d]imidazole] | ≤ 100 nM
28 | Cn1cc(OC(F)(F)F)c(-n2cnnc2-c2nc3cc(C4CC4)cc(F)c3[nH]2)cc1=O [Compound 353, 4-(3-(5-cyclopropyl-7-fluoro-1H-benzo[d]imidazol-2-yl)-4H-1,2,4-triazol-4-yl)-1-methyl-5-(trifluoromethoxy)pyridin-2(1H)-one] | ≤ 100 nM
29 | CC(C)(O)c1ccc2[nH]c(-c3nnccc3-c3cnccc3C(F)(F)F)nc2c1F [Compound 343, 2-(4-Fluoro-2-(4-(4-(trifluoromethyl)pyridin-3-yl)pyridazin-3-yl)-1H-benzo[d]imidazol-5-yl)propan-2-ol] | ≤ 100 nM
